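All cell lines were grown in 96-well plates and treated with compound for 48 hours. The concentration for 50% growth inhibition is given as GI50. TGI: total growth inhibition.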
Columns and labels:
Assay in all cases: inhibition of tumour cell growth, NCI panel, 48 h
786-0 renal = system: 786-0 renal
A498 renal = system: A498 renal
A549 NSCLC = system: A549 NSCLC
ACHN renal = system: ACHN renal
BT-549 breast = system: BT-549 breast
CAKI-1 renal = system: CAKI-1 renal
CCRF-CEM leukemia = system: CCRF-CEM leukemia
COLO 205 colon = system: COLO 205 colon
DU-145 prostate = system: DU-145 prostate
EKVX NSCLC = system: EKVX NSCLC
HCC-2998 colon = system: HCC-2998 colon
HCT-116 colon = system: HCT-116 colon
HCT-15 colon = system: HCT-15 colon
HOP-62 NSCLC = system: HOP-62 NSCLC
HOP-92 NSCLC = system: HOP-92 NSCLC
HS 578T breast = system: HS 578T breast
HT29 colon = system: HT29 colon
IGROV1 ovarian = system: IGROV1 ovarian
K-562 leukemia = system: K-562 leukemia
KM12 colon = system: KM12 colon
LOX IMVI melanoma = system: LOX IMVI melanoma
M14 melanoma = system: M14 melanoma
MALME-3M melanoma = system: MALME-3M melanoma
MCF7 breast = system: MCF7 breast
MDA-MB-231 breast = system: MDA-MB-231 breast
MDA-MB-435 = system: MDA-MB-435
MOLT-4 leukemia = system: MOLT-4 leukemia
NCI-H23 lung = system: NCI-H23 lung
NCI-H460 lung = system: NCI-H460 lung
NCI-H522 lung = system: NCI-H522 lung
NCI/ADR-RES ovarian = system: NCI/ADR-RES ovarian
OVCAR-3 ovarian = system: OVCAR-3 ovarian
OVCAR-4 ovarian = system: OVCAR-4 ovarian
OVCAR-5 ovarian = system: OVCAR-5 ovarian
OVCAR-8 ovarian = system: OVCAR-8 ovarian
PC-3 prostate = system: PC-3 prostate
RPMI-8226 leukemia = system: RPMI-8226 leukemia
RXF 393 renal = system: RXF 393 renal
SF-268 CNS = system: SF-268 CNS
SF-295 CNS = system: SF-295 CNS
SF-539 CNS = system: SF-539 CNS
SK-MEL-2 melanoma = system: SK-MEL-2 melanoma
SK-MEL-28 melanoma = system: SK-MEL-28 melanoma
SK-MEL-5 melanoma = system: SK-MEL-5 melanoma
SK-OV-3 ovarian = system: SK-OV-3 ovarian
SN12C renal = system: SN12C renal
SNB-19 CNS = system: SNB-19 CNS
SR leukemia = system: SR leukemia
SW-620 colon = system: SW-620 colon
T-47D breast = system: T-47D breast
TK-10 renal = system: TK-10 renal
U251 CNS = system: U251 CNS
UACC-257 melanoma = system: UACC-257 melanoma
UACC-62 melanoma = system: UACC-62 melanoma
UO-31 renal = system: UO-31 renal

Structure (SMILES): CC(=O)Oc1cn(-c2ccc(Cl)cc2)nc1C1=NN(C(C)=O)C(c2ccc(F)cc2F)O1 (stereo not given)
- GI50 (786-0 renal): 26.1 µM
- TGI (786-0 renal): 70.3 µM
- GI50 (A498 renal): 29.1 µM
- TGI (A498 renal): 66.4 µM
- GI50 (A549 NSCLC): 33.2 µM
- TGI (A549 NSCLC): > 100 µM
- GI50 (ACHN renal): 44.3 µM
- TGI (ACHN renal): > 100 µM
- GI50 (BT-549 breast): 19.5 µM
- TGI (BT-549 breast): 54.7 µM
- GI50 (CAKI-1 renal): 35.6 µM
- TGI (CAKI-1 renal): 79.8 µM
- GI50 (CCRF-CEM leukemia): 27.5 µM
- TGI (CCRF-CEM leukemia): > 100 µM
- GI50 (COLO 205 colon): 42.7 µM
- TGI (COLO 205 colon): > 100 µM
- GI50 (DU-145 prostate): 39.2 µM
- TGI (DU-145 prostate): > 100 µM
- GI50 (EKVX NSCLC): 28.5 µM
- TGI (EKVX NSCLC): 83 µM
- GI50 (HCC-2998 colon): 35.7 µM
- TGI (HCC-2998 colon): 55.3 µM
- GI50 (HCT-116 colon): 33.4 µM
- TGI (HCT-116 colon): > 100 µM
- GI50 (HCT-15 colon): 32.2 µM
- TGI (HCT-15 colon): > 100 µM
- GI50 (HOP-62 NSCLC): 36.2 µM
- TGI (HOP-62 NSCLC): > 100 µM
- GI50 (HOP-92 NSCLC): 20.6 µM
- TGI (HOP-92 NSCLC): 71.6 µM
- GI50 (HS 578T breast): 31.8 µM
- TGI (HS 578T breast): 88.8 µM
- GI50 (HT29 colon): 40.1 µM
- TGI (HT29 colon): > 100 µM
- GI50 (IGROV1 ovarian): 13.4 µM
- TGI (IGROV1 ovarian): 76.2 µM
- GI50 (K-562 leukemia): 30 µM
- TGI (K-562 leukemia): > 100 µM
- GI50 (KM12 colon): 25.4 µM
- TGI (KM12 colon): 84.2 µM
- GI50 (LOX IMVI melanoma): 30.1 µM
- TGI (LOX IMVI melanoma): > 100 µM
- GI50 (M14 melanoma): 31.4 µM
- TGI (M14 melanoma): > 100 µM
- GI50 (MALME-3M melanoma): 14.8 µM
- TGI (MALME-3M melanoma): 63.5 µM
- GI50 (MCF7 breast): 30 µM
- TGI (MCF7 breast): > 100 µM
- GI50 (MDA-MB-231 breast): 30.4 µM
- TGI (MDA-MB-231 breast): > 100 µM
- GI50 (MDA-MB-435): 27.9 µM
- TGI (MDA-MB-435): 89.5 µM
- GI50 (MOLT-4 leukemia): 18.5 µM
- TGI (MOLT-4 leukemia): 94 µM
- GI50 (NCI-H23 lung): 41.6 µM
- TGI (NCI-H23 lung): > 100 µM
- GI50 (NCI-H460 lung): 34.4 µM
- TGI (NCI-H460 lung): > 100 µM
- GI50 (NCI-H522 lung): 45.6 µM
- TGI (NCI-H522 lung): > 100 µM
- GI50 (NCI/ADR-RES ovarian): 42.9 µM
- TGI (NCI/ADR-RES ovarian): > 100 µM
- GI50 (OVCAR-3 ovarian): 19.7 µM
- TGI (OVCAR-3 ovarian): 75.9 µM
- GI50 (OVCAR-4 ovarian): 74.3 µM
- TGI (OVCAR-4 ovarian): > 100 µM
- GI50 (OVCAR-5 ovarian): 44.4 µM
- TGI (OVCAR-5 ovarian): > 100 µM
- GI50 (OVCAR-8 ovarian): 34.6 µM
- TGI (OVCAR-8 ovarian): > 100 µM
- GI50 (PC-3 prostate): 27.9 µM
- TGI (PC-3 prostate): > 100 µM
- GI50 (RPMI-8226 leukemia): 20.5 µM
- TGI (RPMI-8226 leukemia): 54.8 µM
- GI50 (RXF 393 renal): 23.9 µM
- TGI (RXF 393 renal): > 100 µM
- GI50 (SF-268 CNS): 29.6 µM
- TGI (SF-268 CNS): > 100 µM
- GI50 (SF-295 CNS): 20.2 µM
- TGI (SF-295 CNS): 51.3 µM
- GI50 (SF-539 CNS): 29.8 µM
- TGI (SF-539 CNS): > 100 µM
- GI50 (SK-MEL-2 melanoma): 74 µM
- TGI (SK-MEL-2 melanoma): > 100 µM
- GI50 (SK-MEL-28 melanoma): 50.2 µM
- TGI (SK-MEL-28 melanoma): > 100 µM
- GI50 (SK-MEL-5 melanoma): 18.4 µM
- TGI (SK-MEL-5 melanoma): 38.4 µM
- GI50 (SK-OV-3 ovarian): 50.4 µM
- TGI (SK-OV-3 ovarian): > 100 µM
- GI50 (SN12C renal): 33.6 µM
- TGI (SN12C renal): > 100 µM
- GI50 (SNB-19 CNS): 48.7 µM
- TGI (SNB-19 CNS): > 100 µM
- GI50 (SR leukemia): 35.8 µM
- TGI (SR leukemia): 85.4 µM
- GI50 (SW-620 colon): 41.4 µM
- TGI (SW-620 colon): > 100 µM
- GI50 (T-47D breast): 67.3 µM
- TGI (T-47D breast): > 100 µM
- GI50 (TK-10 renal): 21.1 µM
- TGI (TK-10 renal): 61.9 µM
- GI50 (U251 CNS): 38.5 µM
- TGI (U251 CNS): > 100 µM
- GI50 (UACC-257 melanoma): 27.2 µM
- TGI (UACC-257 melanoma): 81.6 µM
- GI50 (UACC-62 melanoma): 28.8 µM
- TGI (UACC-62 melanoma): 96.3 µM
- GI50 (UO-31 renal): 31.8 µM
- TGI (UO-31 renal): > 100 µM

Reference: PubChem BioAssay (NCI)
